Test results published in patent US5543420A, “Quinoline-3-acetic acid derivative, process for production thereof and use thereof” (The Green Cross Corporation, priority 1993, dated 1996).

What was measured:
[1] = tested on: sorbitol accumulation in tissues (erythrocytes, sciatic nerve, lens); test: Inhibitory action on sorbitol accumulation in tissues of rats with experimental diabetes; assay type: in vivo, Sprague-Dawley rats; settings: streptozotocin rats, 3 hours after final administration, control taken as 100%
Method: Sprague-Dawley rats (male, 6 weeks old, 5-6 per group) were fasted for 18 hours and injected with streptozotocin (SIGMA, 60 mg/kg) via the tail vein under etherization to prepare rats with diabetes.
[…] During the administrations, the rats were raised under free access to feed and water and the sorbitol content in the tissues (erythrocytes, sciatic nerve, lens) was determined 3 hours after the final administration according to the enzyme method of H. Y. Bergmeyer et al. [Methods of Enzymatic Analysis, vol. 3, 1323-1330 (1974)] with the use of SDH (sorbitol dehydrogenase) and NAD (β-nicotinamide adenine dinucleotide). The results are expressed in percent (%) relative to the value of a control group administered with 0.5% carboxymethylcellulose solution (solvent) instead of the compound, which was taken as 100%.

[2] = tested on: Normal ICR mice; settings: mouse, in vivo
Method: The acute toxicity (safety) of the compound of the present invention was confirmed by the following method.
Normal ICR mice (male, 7 weeks old, 5 per group) were fasted for 18 hours and the compounds (300 mg/kg) of Example 11 and Example 20 were orally administered as 0.5% carboxymethylcellulose suspensions. To the control group, a 0.5% carboxymethylcellulose solution alone was orally administered and observation was continued for 14 days thereafter, during which period the mice were allowed to take feed and water freely.

[3] = target: T1, aldose reductase (Sus scrofa, UniProt P80276); test: Aldose reductase inhibitory action; assay type: biochemical; settings: swine lens enzyme, diglyceraldehyde substrate 3 mM, 0.1 mM NADPH, pH 6.2, 25° C., 2 minutes; read-out: IC50 (concentration inhibiting the aldose reductase activity by 50%)
T1 construct: An aldose reductase enzyme standard product was prepared from swine lens; from tissue; host or cells: swine lens
Method: An aldose reductase enzyme standard product was prepared from swine lens according to the method of S. Hayman et al. [Journal of Biological Chemistry, 240, 877-882 (1965)]. That is, swine lenses freeze-stored at -80° C. were homogenized with distilled water and cetrifuged at 10,000 g for 15 minutes. The supernatant was prepared into a 40% ammonium sulfate solution and subjected to cetrifugation at 10,000 g for 10 minutes. The supernatant obtained was dialyzed overnight against a 0.05M sodium chloride solution to give a dialyzed solution, which was used as an enzyme standard product.
The activity of aldose reductase was determined by the above-mentioned method of S. Hayman et al. That is, the above-mentioned enzyme solution (25 μl) and a drug solution (25 μl) in 1% DMSO at various concentrations were added to a 40 mM phosphate buffer (200 μl, pH 6.2) containing final concentrations of 0.4M lithium sulfate, 0.1 mM NADPH (reduced type nicotinamide adenine dinucleotide phosphate) and 3 mM diglyceraldehyde as a substrate. The mixture was allowed to react at 25° C. for 2 minutes and the changes in absorbance at 340 nm was determined with COBAS FARA II (manufactured by Roche).
The changes in absorbance when 1% DMSO was added instead of the drug solution was taken as 100%, based on which 50% inhibition concentration (IC50) was calculated and shown in Table 1.
The test drug number indicates the example number to be mentioned later. Compound A is 3,4-dihydro-2,8-diisopropyl-3-thioxo-2H-1,4-benzoxazine-4-acetic acid disclosed in Japanese Patent Unexamined Publication 107970/1988.

[4] = 30 mg/kg oral at 4, 8 and 24 hours
[5] = 10 mg/kg oral at 4, 8 and 24 hours

IC50 [3]	SMILES	Sorbitol accumulation, erythrocytes [1, 4]	Sorbitol accumulation, lens [1, 4]	Sorbitol accumulation, sciatic nerve [1, 4]	death of the mice [2]	Sorbitol accumulation, erythrocytes [1, 5]	Sorbitol accumulation, lens [1, 5]	Sorbitol accumulation, sciatic nerve [1, 5]
	CC(C)c1cccc2c1OC(C(C)C)C(=S)N2CC(=O)O (stereo not shown) [Compound A, 3,4-dihydro-2,8-diisopropyl-3-thioxo-2H-1,4-benzoxazine-4-acetic acid, reference compound]	53.7%	87.3%	54.9%				
13 nM	O=C(O)CC1Cc2ccccc2N(Cc2nc3c(F)c(F)ccc3s2)C1=O (stereo not shown) [Example 12, 1-(4,5-difluorobenzothiazol-2-yl)methyl-2-oxo-1,2,3,4-tetrahydro-1H-quinolin-3-ylacetic acid]					0.0%	78.8%	0.0%
11 nM	Cc1ccc2c(c1)CC(CC(=O)O)C(=O)N2Cc1nc2c(F)c(F)cc(F)c2s1 (stereo not shown) [Example 17, 1-(4,5,7-trifluorobenzothiazol-2-yl)methyl-6-methyl-2-oxo-1,2,3,4-tetrahydro-1H-quinolin-3-ylacetic acid]					31.2%	46.9%	0.5%
12 nM	O=C(O)CC1Cc2cc(F)ccc2N(Cc2nc3c(F)c(F)cc(F)c3s2)C1=O (stereo not shown) [Example 19, 6-fluoro-1-(4,5,7-trifluorobenzothiazol-2-yl)methyl-2-oxo-1,2,3,4-tetrahydro-1H-quinolin-3-ylacetic acid]							

SMILES	IC50 [3]	Sorbitol accumulation, erythrocytes [1, 4]	Sorbitol accumulation, lens [1, 4]	Sorbitol accumulation, sciatic nerve [1, 4]	death of the mice [2]	Sorbitol accumulation, erythrocytes [1, 5]	Sorbitol accumulation, lens [1, 5]	Sorbitol accumulation, sciatic nerve [1, 5]
O=C(O)CC1Cc2ccccc2N(Cc2nc3c(F)c(F)cc(F)c3s2)C1=O (stereo not shown) [Example 11, 1-(4,5,7-Trifluorobenzothiazol-2-Yl)Methyl-2-Oxo-1,2,3,4-Tetrahydro-1H-Quinolin-3-Ylacetic Acid]	9 nM				no case of death	15.6%	50.7%	0.0%
O=C(O)Cc1cc2ccccc2n(Cc2nc3c(F)c(F)cc(F)c3s2)c1=O [Example 20, 1-(4,5,7-trifluorobenzothiazol-2-yl)methyl-2-oxo-1,2-dihydro-1H-quinolin-3-ylacetic acid]	9.4 nM				no case of death			
